Laboratory results taken from ChEMBL document CHEMBL3272309, “Potential central nervous system antitumor agents. Aziridinylbenzoquinones. 1” (J Med Chem, 1976).
Converted amounts (≈) assume the structure as drawn.

Tests used:
L1210 [1] = test: Antitumor activity against mouse L1210 cells allografted in mouse assessed as change in body weight at 3.12 mg/kg, ip qd administered from day 1 to 9 post ip tumor-implantation measured on day 5 relative to control; type: functional; conditions: route intraperitoneal
B16 [2] = test: Antitumor activity against mouse B16 cells allografted in mouse assessed as mouse survival at 0.78 mg/kg, ip qd administered from day 1 to 9 post ip tumor-implantation relative to control; type: functional; conditions: route intraperitoneal
[3] = tested on: Lewis lung carcinoma cell line; test: Antitumor activity against mouse LLC cells allografted in mouse assessed as change in body weight at 1 mg/kg, ip qd administered from day 5 to 15 post sc tumor-implantation measured on day 5 relative to control; type: functional; conditions: route subcutaneous
L1210 [4] = test: Antitumor activity against mouse L1210 cells allografted in mouse assessed as mouse survival at 6.25 mg/kg, ip qd administered from day 1 to 9 post intracerebral tumor-implantation relative to control; type: functional; conditions: route intraperitoneal
P388 [5] = test: Antitumor activity against mouse P388 cells allografted in mouse assessed as change in body weight at 0.78 mg/kg, ip qd administered from day 1 to 9 post intracerebral tumor-implantation measured on day 5 relative to control; type: functional; conditions: route intraperitoneal
[6] = tested on: Lewis lung carcinoma cell line; test: Antitumor activity against mouse LLC cells allografted in mouse assessed as change in body weight at 4 mg/kg, ip qd administered from day 5 to 15 post sc tumor-implantation measured on day 5 relative to control; type: functional; conditions: route subcutaneous
L1210 [7] = test: Antitumor activity against mouse L1210 cells allografted in mouse assessed as mouse survival at 6.25 mg/kg, ip qd administered from day 1 to 9 post ip tumor-implantation relative to control; type: functional; conditions: route intraperitoneal
[8] = tested on: Lewis lung carcinoma cell line; test: Antitumor activity against mouse LLC cells allografted in mouse assessed as change in body weight at 2 mg/kg, ip qd administered from day 5 to 15 post sc tumor-implantation measured on day 5 relative to control; type: functional; conditions: route subcutaneous
[9] = Aqueous solubility of the compound; type: physicochemical
[10] = Antitumor activity against mouse ependymoblastoma cells allografted in mouse assessed as change in body weight at 0.5 mg/kg, ip qd administered from day 1 to 5 post intracerebral tumor-implantation measured on day 5 relative to control; type: functional; conditions: route intraperitoneal
P388 [11] = test: Antitumor activity against mouse P388 cells allografted in mouse assessed as change in body weight at 6.25 mg/kg, ip qd administered from day 1 to 9 post intracerebral tumor-implantation measured on day 5 relative to control; type: functional; conditions: route intraperitoneal
L1210 [12] = test: Antitumor activity against mouse L1210 cells allografted in mouse assessed as change in body weight at 12.5 mg/kg, ip qd administered from day 1 to 9 post ip tumor-implantation measured on day 5 relative to control; type: functional; conditions: route intraperitoneal
L1210 [13] = test: Antitumor activity against mouse L1210 cells allografted in mouse assessed as mouse survival at 2 mg/kg, ip qd administered from day 1 to 9 post ip tumor-implantation relative to control; type: functional; conditions: route intraperitoneal
[14] = Antitumor activity against mouse ependymoblastoma cells allografted in mouse assessed as mouse survival at 2 mg/kg, ip qd administered from day 1 to 5 post intracerebral tumor-implantation relative to control; type: functional; conditions: route intraperitoneal
P388 [15] = test: Antitumor activity against mouse P388 cells allografted in mouse assessed as mouse survival at 0.78 mg/kg, ip qd administered from day 1 to 9 post ip tumor-implantation relative to control; type: functional; conditions: route intraperitoneal
P388 [16] = test: Antitumor activity against mouse P388 cells allografted in mouse assessed as mouse survival at 1.56 mg/kg, ip qd administered from day 1 to 9 post intracerebral tumor-implantation relative to control; type: functional; conditions: route intraperitoneal
[17] = Antitumor activity against mouse ependymoblastoma cells allografted in mouse assessed as mouse survival at 4 mg/kg, ip qd administered from day 1 to 5 post intracerebral tumor-implantation relative to control; type: functional; conditions: route intraperitoneal
[18] = Antitumor activity against mouse ependymoblastoma cells allografted in mouse assessed as change in body weight at 2 mg/kg, ip qd administered from day 1 to 5 post intracerebral tumor-implantation measured on day 5 relative to control; type: functional; conditions: route intraperitoneal
[19] = Therapeutic ratio, ratio of highest active dose to lowest active for antitumor activity against in ip dosed mouse allografted with mouse L1210 cells; type: ADME, organism-based; conditions: in vivo, read-out: TI
P388 [20] = test: Antitumor activity against mouse P388 cells allografted in mouse assessed as change in body weight at 0.78 mg/kg, ip qd administered from day 1 to 9 post ip tumor-implantation measured on day 5 relative to control; type: functional; conditions: route intraperitoneal
P388 [21] = test: Antitumor activity against mouse P388 cells allografted in mouse assessed as change in body weight at 0.39 mg/kg, ip qd administered from day 1 to 9 post intracerebral tumor-implantation measured on day 5 relative to control; type: functional; conditions: route intraperitoneal
L1210 [22] = test: Antitumor activity against mouse L1210 cells allografted in mouse assessed as mouse survival at 1.56 mg/kg, ip qd administered from day 1 to 9 post intracerebral tumor-implantation relative to control; type: functional; conditions: route intraperitoneal
Mus musculus = test: Toxicity in mouse allografted with mouse P388 cells at 6.25 mg/kg, ip qd administered from day 1 to 9 post intracerebral tumor-implantation; type: organism-based; set-up: dose 6.25 mg/kg, route intraperitoneal; conditions: in vivo
[23] = Therapeutic ratio, ratio of highest active dose to lowest active for antitumor activity against in ip dosed mouse allografted with mouse LLC cells; type: organism-based, Lewis lung carcinoma; conditions: in vivo, read-out: TI
[24] = Therapeutic ratio, ratio of highest active dose to lowest active for antitumor activity against in ip dosed mouse allografted with mouse P388 cells; type: ADME, organism-based; conditions: in vivo, read-out: TI
L1210 [25] = test: Antitumor activity against mouse L1210 cells allografted in mouse assessed as change in body weight at 1.56 mg/kg, ip qd administered from day 1 to 9 post intracerebral tumor-implantation measured on day 5 relative to control; type: functional; conditions: route intraperitoneal
P388 [26] = test: Antitumor activity against mouse P388 cells allografted in mouse assessed as mouse survival at 0.78 mg/kg, ip qd administered from day 1 to 9 post intracerebral tumor-implantation relative to control; type: functional; conditions: route intraperitoneal
B16 [27] = test: Antitumor activity against mouse B16 cells allografted in mouse assessed as change in body weight at 1.56 mg/kg, ip qd administered from day 1 to 9 post ip tumor-implantation measured on day 5 relative to control; type: functional; conditions: route intraperitoneal
P388 [28] = test: Antitumor activity against mouse P388 cells allografted in mouse assessed as change in body weight at 3.12 mg/kg, ip qd administered from day 1 to 9 post ip tumor-implantation measured on day 5 relative to control; type: functional; conditions: route intraperitoneal
L1210 [29] = test: Antitumor activity against mouse L1210 cells allografted in mouse assessed as mouse survival at 0.78 mg/kg, ip qd administered from day 1 to 9 post intracerebral tumor-implantation relative to control; type: functional; conditions: route intraperitoneal
L1210 [30] = test: Antitumor activity against mouse L1210 cells allografted in ip dosed mouse assessed as optimum dose administered qd on day 1, 5 and 9; type: functional
[31] = Antitumor activity against mouse ependymoblastoma cells allografted in mouse assessed as mouse survival at 0.5 mg/kg, ip qd administered from day 1 to 5 post intracerebral tumor-implantation relative to control; type: functional; conditions: route intraperitoneal
[32] = tested on: Lewis lung carcinoma cell line; test: Antitumor activity against mouse LLC cells allografted in mouse assessed as mouse survival at 1 mg/kg, ip qd administered from day 5 to 15 post sc tumor-implantation relative to control; type: functional; conditions: route subcutaneous
[33] = Antitumor activity against mouse ependymoblastoma cells allografted in mouse assessed as change in body weight at 8 mg/kg, ip qd administered from day 1 to 5 post intracerebral tumor-implantation measured on day 5 relative to control; type: functional; conditions: route intraperitoneal

Structure (SMILES): CCOC(=O)NC1=C(N2CC2)C(=O)C(NC(=O)OCC)=C(N2CC2)C1=O [DIAZIQUONE]
- Activity (L1210 [1]): -4.1 g
- T/C (B16 [2]): 113%
- Activity [3]: -0.1 g
- T/C (L1210 [4]): 103%
- Activity (P388 [5]): -0.4 g
- Activity [6]: -0.1 g
- T/C (L1210 [7]): 127%
- Activity [8]: 0.3 g
- solubility [9]: 500 µg/mL (≈ 1370 µM)
- Activity [10]: -1.8 g
- Activity (P388 [11]): -2.8 g
- Activity (L1210 [12]): -5 g
- T/C (L1210 [13]): 201%
- T/C [14]: 271%
- T/C (P388 [15]): 199%
- T/C (P388 [16]): 137%
- T/C [17]: 376%
- Activity [18]: -2.7 g
- selectivity ratio [19]: 4
- Activity (P388 [20]): -2.4 g
- Activity (P388 [21]): -0.7 g
- T/C (L1210 [22]): 146%
- Activity (Mus musculus): Toxic
- selectivity ratio [23]: 3
- selectivity ratio [24]: 3
- Activity (L1210 [25]): -0.6 g
- T/C (P388 [26]): 125%
- Activity (B16 [27]): -3.6 g
- Activity (P388 [28]): -4.1 g
- T/C (L1210 [29]): 103%
- Activity (L1210 [30]): 6.25 mg/kg
- T/C [31]: 162%
- T/C [32]: 89%
- Activity [33]: -5 g
